Measurements published in US12577267B2, “Pyrimidine compounds for use as MAP4K1 inhibitors” (GLENMARK SPECIALITY S.A., priority 2021, dated 2026).
Where a name gives a salt, the structure may show the parent alone. Read-outs that look alike come from different tables or passages of the source.

Molecular target: MAP4K-1 enzyme (Homo sapiens, UniProt Q92918)
Assay: FRET one step binding assay (tracer displacement)
Conditions: for inhibition at 1 µM / % Inhibition at 1 μM: 1 μM compound; for inhibition at 10 µM / % Inhibition at 10 μM: 10 μM compound
Method: This is a one step binding assay based on the binding and displacement of the labeled tracer, where compound addition is followed by addition of the anti-GST tagged europium (Eu) as the donor and Alexa Fluor-labeled tracer as the acceptor.
Test compounds were dissolved in dimethylsulfoxide (DMSO) to prepare 10.0 mM stock solutions and diluted to the desired concentration. The final concentration of DMSO in the reaction was 3% (v/v). The assay mixture was prepared by mixing 2 nM of the Eu-Anti-GST Antibody and 5 nM MAP4K-1 enzyme in the Kinase buffer containing 50 mM HEPES (pH 7.5), 10 mM MgCl2, 1 mM EGTA, 0.01% Brij-35 with or without the desired concentration of the compound. The reaction was incubated on ice for 15 min. […] After shaking for 5 min the reaction was further incubated for 1 hour at room temperature and this was kept at 4° C. and read on ARTEMIS reader as per the kit instructions (Thermo). […] The activity was calculated as percent of control reaction. IC50 values were calculated from dose response curve by nonlinear regression analysis using GraphPad Prism software.

Sequence of MAP4K-1 enzyme (Q92918 whole entry): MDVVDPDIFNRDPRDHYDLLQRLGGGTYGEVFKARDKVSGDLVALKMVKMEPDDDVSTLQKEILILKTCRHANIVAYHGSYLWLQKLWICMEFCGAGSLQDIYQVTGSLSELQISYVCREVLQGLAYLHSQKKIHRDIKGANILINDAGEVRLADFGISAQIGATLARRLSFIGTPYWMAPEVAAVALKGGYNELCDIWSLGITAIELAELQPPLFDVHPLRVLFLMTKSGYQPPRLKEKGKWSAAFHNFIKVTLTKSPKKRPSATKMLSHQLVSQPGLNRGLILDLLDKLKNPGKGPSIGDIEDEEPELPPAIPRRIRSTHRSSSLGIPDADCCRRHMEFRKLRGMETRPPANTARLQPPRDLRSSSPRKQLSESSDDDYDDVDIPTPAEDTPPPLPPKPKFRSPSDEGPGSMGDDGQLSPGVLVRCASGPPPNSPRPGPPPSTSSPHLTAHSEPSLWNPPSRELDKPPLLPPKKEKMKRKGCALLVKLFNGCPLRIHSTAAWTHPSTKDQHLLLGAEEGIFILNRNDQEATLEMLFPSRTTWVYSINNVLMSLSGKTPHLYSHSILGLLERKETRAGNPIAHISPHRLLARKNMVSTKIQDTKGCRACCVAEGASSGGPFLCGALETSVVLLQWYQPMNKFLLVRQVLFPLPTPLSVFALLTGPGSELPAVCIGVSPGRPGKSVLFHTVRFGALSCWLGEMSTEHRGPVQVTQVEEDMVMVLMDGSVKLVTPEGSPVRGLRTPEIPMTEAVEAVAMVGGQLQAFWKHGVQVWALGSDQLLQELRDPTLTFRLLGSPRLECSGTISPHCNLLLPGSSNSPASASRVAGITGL

| IC50 (read-out: IC50) [nM] | Compound | inhibition at 1 µM [%] | inhibition at 10 µM [%] | IC50 (IC50 (nM)) [nM] | further results |
| --- | --- | --- | --- | --- | --- |
|  | [2H]C([2H])([2H])Oc1cc2c(cc1Nc1ncc(Cl)c(Nc3ccc(OS(=O)(=O)F)cc3P(C)(C)=O)n1)CNCC2 [Example 39, 4-((5-Chloro-2-((6-methoxy-d3-1,2,3,4-tetrahydroisoquinolin-7-yl)amino)pyrimidin-4-yl)amino)-3-(dimethylphosphoryl)phenyl sulfofluoridate dihydrochloride] | 75.1 | 87 | < 50 |  |
| < 50 | COc1cc2c(cc1Nc1ncc(Cl)c(Nc3ccc(OC(F)(F)F)cc3P(C)(C)=O)n1)CN(C)CC2 [Example 47] | 91.4 | 88 |  |  |
|  | CN1CCc2cc(O)c(Nc3ncc(Cl)c(Nc4ccc(OS(=O)(=O)F)cc4P(C)(C)=O)n3)cc2C1 [Example 61, 4-((5-Chloro-2-((6-hydroxy-2-methyl-1,2,3,4-tetrahydroisoquinolin-7-yl)amino)pyrimidin-4-yl)amino)-3-(dimethylphosphoryl)phenylsulfofluoridate dihydrochloride] | 89.6 | 89.7 | < 50 |  |
| < 50 | COc1cc2c(cc1Nc1ncc(Cl)c(Nc3ccc(OC(F)F)cc3P(C)(C)=O)n1)CN(C)CC2 [Example 45, (2-((5-Chloro-2-((6-methoxy-2-methyl-1,2,3,4-tetrahydroisoquinolin-7-yl)amino)pyrimidin-4-yl)amino)-5-(difluoromethoxy)phenyl)dimethylphosphineoxide] | 74.8 | 79 |  |  |
|  | COc1cc2c(cc1Nc1ncc(Cl)c(Nc3ccc(OS(=O)(=O)F)cc3P(C)(C)=O)n1)CN(C)C(C)C2 (single isomer, unassigned; isomer 2) [Example 34, 4-((5-Chloro-2-((6-methoxy-2,3-dimethyl-1,2,3,4-tetrahydroisoquinolin-7-yl)amino)pyrimidin-4-yl)amino)-3-(dimethylphosphoryl)phenyl sulfofluoridate dihydrochloride (Isomer 2)] |  |  |  | IC50: < 50 nM; % Inhibition at 1 μM (1 µM): 84.26%; % Inhibition at 10 μM (10 µM): 86.64% |
|  | COc1cc2c(cc1Nc1ncc(Cl)c(Nc3cc(OS(=O)(=O)F)ccc3P(C)(C)=O)n1)CN(C)C(C)C2 (single isomer, unassigned; isomer 1) [Example 35, 3-((5-Chloro-2-((6-methoxy-2,3-dimethyl-1,2,3,4-tetrahydroisoquinolin-7-yl)amino)pyrimidin-4-yl)amino)-4-(dimethylphosphoryl)phenyl sulfofluoridate dihydrochloride (Isomer 1)] | 83 | 79.1 | < 50 |  |
|  | COc1cc2c(cc1Nc1ncc(Cl)c(Nc3cc(OS(=O)(=O)F)ccc3P(C)(C)=O)n1)CN(C)C(C)C2 (single isomer, unassigned; isomer 2) [Example 36, 3-((5-Chloro-2-((6-methoxy-2,3-dimethyl-1,2,3,4-tetrahydroisoquinolin-7-yl)amino)pyrimidin-4-yl)amino)-4-(dimethylphosphoryl)phenyl sulfofluoridate dihydrochloride (Isomer 2)] |  |  |  | IC50: < 50 nM; % Inhibition at 1 μM (1 µM): 85.29%; % Inhibition at 10 μM (10 µM): 83.76% |
|  | COc1cc2c(cc1Nc1ncc(Cl)c(Nc3cc(OS(=O)(=O)F)ccc3P(C)(C)=O)n1)C(C)N(C)CC2 (single isomer, unassigned; isomer 2) [Example 32, 3-((5-Chloro-2-((6-methoxy-1,2-dimethyl-1,2,3,4-tetrahydroisoquinolin-7-yl)amino)pyrimidin-4-yl)amino)-4-(dimethylphosphoryl)phenyl sulfofluoridate dihydrochloride (Isomer 2)] |  |  |  | IC50: < 50 nM; % Inhibition at 1 μM (1 µM): 84.51%; % Inhibition at 10 μM (10 µM): 89.25% |
| < 50 | COc1cc2c(cc1Nc1ncc(Cl)c(Nc3ccc(OCC(F)F)cc3P(C)(C)=O)n1)CN(C)CC2 [Example 46, (2-((5-Chloro-2-((6-methoxy-2-methyl-1,2,3,4-tetrahydroisoquinolin-7-yl)amino)pyrimidin-4-yl)amino)-5-(2,2-difluoroethoxy)phenyl) dimethylphosphine oxide] | 73.6 | 73.9 |  |  |
| < 50 | COc1cc2c(cc1Nc1ncc(Cl)c(Nc3ccc(O)cc3P(C)(C)=O)n1)CN(C)CC2 [Example 1, (2-((5-Chloro-2-((6-methoxy-2-methyl-1,2,3,4-tetrahydroisoquinolin-7-yl)amino)pyrimidin-4-yl)amino)-5-hydroxyphenyl)dimethylphosphineoxide dihydrochloride] | 87.2 | 86.5 |  |  |
|  | COc1cc2c(cc1Nc1ncc(Cl)c(Nc3ccc(OS(=O)(=O)F)cc3P(C)(C)=O)n1)C(C)N(C)CC2 (racemic) [Example 12, ±4-((5-chloro-2-((6-methoxy-1,2-dimethyl-1,2,3,4-tetrahydroisoquinolin-7-yl)amino)pyrimidin-4-yl)amino)-3-(dimethylphos-phoryl)phenylsulfurofluoridate dihydrochloride] | 87.5 | 85.9 | < 50 |  |
|  | COc1cc2c(cc1Nc1ncc(C(N)=O)c(Nc3ccc(OS(=O)(=O)F)cc3P(C)(C)=O)n1)CN(C)CC2 [Example 3, 4-((5-Carbamoyl-2-((6-methoxy-2-methyl-1,2,3,4-tetrahydroisoquinolin-7-yl)amino)pyrimidin-4-yl)amino)-3-(dimethylphosphoryl)phenyl sulfurofluoridate dihydrochloride] | 85.6 | 91.2 | < 50 |  |
|  | COc1cc2c(cc1Nc1ncc(Cl)c(Nc3ccc(OS(=O)(=O)F)cc3P(C)(C)=O)n1)CN(CC(F)(F)F)CC2.Cl.Cl [Example 7, 4-((5-Chloro-2-((6-methoxy-2-(2,2,2-trifluoroethyl)-1,2,3,4-tetrahydroisoquinolin-7-yl)amino)pyrimidin-4-yl)amino)-3-(dimethyllphosphoryl)phenyl sulfurofluoridate dihydrochloride] |  |  |  | % Inhibition at 1 μM: 37.71%; % Inhibition at 10 μM: 69.74% |
| < 50 | COc1cc2c(cc1Nc1ncc(Cl)c(Nc3ccc(O[C@@H]4CCOC4)cc3P(C)(C)=O)n1)CN(C)CC2 [Example 49, (R)-(2-((5-Chloro-2-((6-methoxy-2-methyl-1,2,3,4-tetrahydroisoquinolin-7-yl)amino)pyrimidin-4-yl)amino)-5-((tetrahydrofuran-3-yl)oxy)phenyl)dimethyl phosphine oxide] | 94.3 | 91.7 |  |  |
|  | [2H]C([2H])([2H])N1CCc2cc(OC)c(Nc3ncc(Cl)c(Nc4ccc(OS(=O)(=O)F)cc4P(C)(C)=O)n3)cc2C1 [Example 4, 4-((5-Chloro-2-((6-methoxy-2-(methyl-d3)-1,2,3,4-tetrahydroisoquinolin-7-yl)amino)pyramidin-4-yl)amino)-3-(dimethylphosphoryl) phenylsulfurofluoridate dihydrochloride] | 72.9 | 78.4 | < 50 |  |
|  | CN1CCc2cc(F)c(Nc3ncc(Cl)c(Nc4ccc(OS(=O)(=O)F)cc4P(C)(C)=O)n3)cc2C1 [Example 26, 4-((5-Chloro-2-((6-fluoro-2-methyl-1,2,3,4-tetrahydroisoquinolin-7-yl)amino)pyrimidin-4-yl)amino)-3-(dimethylphosphoryl)phenyl sulfofluoridate dihydrochloride] | 75.8 | 76.5 | < 50 |  |
|  | COc1cc2c(cc1Nc1ncc(Cl)c(Nc3cccc(OS(=O)(=O)F)c3P(C)(C)=O)n1)CN(C)CC2 [Example 19, 3-((5-Chloro-2-((6-methoxy-2-methyl-1,2,3,4-tetrahydroisoquinolin-7-yl)amino)pyrimidin-4-yl)amino)-2-(dimethylphosphoryl) phenylsulfofluoridate dihydrochloride] | 76.6 | 78.2 | < 50 |  |
|  | COc1cc2c(cc1Nc1ncc(Cl)c(Oc3ccc(OS(=O)(=O)F)cc3P(C)(C)=O)n1)CN(C)CC2 [Example 60, 4-((5-Chloro-2-((6-methoxy-2-methyl-1,2,3,4-tetrahydroisoquinolin-7-yl)amino)pyrimidin-4-yl)oxy)-3-(dimethylphosphoryl)phenylsulfofluoridate dihydrochloride] | 70.5 | 83.4 | 100 to 500 |  |
| < 50 | COc1cc2c(cc1Nc1ncc(Cl)c(Oc3ccccc3P(C)(C)=O)n1)CN(C)CC2 [Example 59, (2-((5-Chloro-2-((6-methoxy-2-methyl-1,2,3,4-tetrahydroisoquinolin-7-yl)amino)pyrimidin-4-yl)oxy)phenyl)dimethylphosphine oxide] | 83.1 | 87.3 |  |  |
|  | COc1cc2c(cc1Nc1ncc(Cl)c(Nc3ccc(OS(=O)(=O)F)cc3P(C)(C)=O)n1)CN(CC(F)F)CC2 [Example 8, 4-((5-Chloro-2-((2-(2,2-difluoroethyl)-6-methoxy-1,2,3,4-tetrahydroisoquinolin-7-yl)amino)pyrimidin-4-yl)amino)-3-(dimethylphosphoryl)phenyl sulfurofluoridate dihydrochloride] | 63.7 | 80 | < 50 |  |
